pEC50: −log10 of the molar value.
target: T1, human mGluR2 (Homo sapiens, UniProt Q14416); test: [35S]-GTPγS binding assay of mGluR2 receptor activation (allosteric activator activity) with CHO cell membranes; assay type: biochemical; settings: membranes from CHO cells stably expressing human mGluR2; in presence of 1 μM glutamate
T1 construct: expressed in transfected cells; host or cells: CHO cells, stably transfected; membrane preparation
Procedure: A [^35S]-GTPγS binding assay was used to functionally assay mGluR2 receptor activation. The allosteric activator activity of compounds at the human mGluR2 receptor were measured using a [^35S]-GTPγS binding assay with membranes prepared from CHO cells which stably express the human mGluR2. The assay is based upon the principle that agonists bind to G-protein coupled receptors to stimulate GDP-GTP exchange at the G-protein. Since [^35S]-GTPγS is a non-hydrolyzable GTP analog, it can be used to provide an index of GDP-GTP exchange and, thus, receptor activation. The GTPγS binding assay therefore provides a quantitative measure of receptor activation.
Membranes were prepared from CHO cells stably transfected with human mGluR2. Membranes (30 μg protein) were incubated with test compound (3 nM to 300 μM) for 15 minutes at room temperature prior to the addition of 1 μM glutamate, and incubated for 30 min at 30° C. in 500 μl assay buffer (20 mM HEPES, 100 mM NaCl, 10 mM MgCl2), containing 30 μM GDP and 0.1 nM [^35S]-GTPγS (1250 Ci/mmol). Reactions were carried out in triplicate in 2 ml polypropylene 96-well plates. Reactions were terminated by vacuum filtration using a Packard 96-well harvester and Unifilter-96, GF/B filter microplates. The filter plates were washed 4×1.5 ml with ice-cold wash buffer (10 mM sodium phosphate buffer, pH 7.4). The filter plates were dried and 35 μl of scintillation fluid (Microscint 20) was added to each well. The amount of radioactivity bound was determined by counting plates on the Packard TopCount. Data was analyzed using GraphPad Prism, and EC50 and Emax values (relative to the maximum glutamate effect) were calculated using non-linear regression.

T1 sequence (Q14416 19-872): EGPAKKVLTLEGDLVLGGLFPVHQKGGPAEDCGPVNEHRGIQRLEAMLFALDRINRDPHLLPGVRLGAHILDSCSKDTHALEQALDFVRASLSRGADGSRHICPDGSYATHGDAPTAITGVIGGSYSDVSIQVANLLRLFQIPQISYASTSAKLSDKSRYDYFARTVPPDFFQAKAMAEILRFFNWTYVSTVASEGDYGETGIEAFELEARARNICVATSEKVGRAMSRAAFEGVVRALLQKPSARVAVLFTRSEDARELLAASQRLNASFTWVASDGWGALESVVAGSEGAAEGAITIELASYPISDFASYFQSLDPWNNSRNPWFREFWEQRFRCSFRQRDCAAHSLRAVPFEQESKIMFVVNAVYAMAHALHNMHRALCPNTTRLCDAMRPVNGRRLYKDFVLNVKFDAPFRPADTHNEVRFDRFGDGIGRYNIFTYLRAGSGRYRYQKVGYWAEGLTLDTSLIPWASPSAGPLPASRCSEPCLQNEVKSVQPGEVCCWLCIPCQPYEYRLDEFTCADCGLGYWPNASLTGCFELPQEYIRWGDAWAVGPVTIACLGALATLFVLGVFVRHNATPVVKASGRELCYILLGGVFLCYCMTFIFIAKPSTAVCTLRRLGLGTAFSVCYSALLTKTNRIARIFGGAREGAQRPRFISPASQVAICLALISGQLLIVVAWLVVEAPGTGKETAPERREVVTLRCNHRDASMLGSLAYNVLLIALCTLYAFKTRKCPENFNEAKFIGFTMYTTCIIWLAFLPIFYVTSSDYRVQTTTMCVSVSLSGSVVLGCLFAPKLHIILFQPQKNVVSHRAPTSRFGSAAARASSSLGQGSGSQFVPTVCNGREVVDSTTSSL

Row | SMILES | pEC50
1 | O=C(NC1CCN(Cc2ccccc2)C1)c1ccc(-c2ccc(CN3C[C@@H](c4ccccc4)OC3=O)cc2)cc1 (stereo in doubt) [Example 10.29, 4′-(2-Oxo-5-(R)-phenyl-oxazolidin-3-ylmethyl)-biphenyl-4-carboxylicacid (1-benzyl-pyrrolidin-3-(S)-yl)-amide] | 6.92
2 | O=C1O[C@H](c2ccccc2)CN1Cc1ccc(OC(F)(F)F)cc1 [Example 3.1, 5-(R)-Phenyl-3-(4-trifluoromethoxy-benzyl)-oxazolidin-2-one] | 5.71
3 | O=C1OC(c2ccc(F)cc2)CN1Cc1ccc(Oc2ccccc2)cc1 (centres unmarked) [Example 13.5, 5-(4-Fluoro-phenyl)-3-(4-phenoxy-benzyl)-oxazolidin-2-one] | 6.41
4 | COc1cncc(-c2ccc(C3CN(Cc4ccc(OC(F)(F)F)cc4)C(=O)O3)cc2)c1 (centres unmarked) [Example 17.2, 5-[4-(5-Methoxy-pyridin-3-yl)-phenyl]-3-(4-trifluoromethoxy-benzyl)-oxa-zolidin-2-one] | 6.04
5 | CN(C)CCNC(=O)c1cccc(-c2ccc(C3CN(Cc4ccc(Cl)cc4)C(=O)O3)cc2)c1 (centres unmarked) [Example 17.3, 4′-[3-(4-Chloro-benzyl)-2-oxo-oxa-zolidin-5-yl]-biphenyl-3-carboxylic acid(2-dimethylamino-ethyl)-amide] | 5.51
